Legend:
[1] = target: T1, Glucocorticoid Receptor (GR) (Homo sapiens, UniProt P04150); assay: GR Fluorescence Polarization Assay (PolarScreen Glucocorticoid Receptor Competitor Assay, Red); conditions: IC50 class ranges, read-out: GR binding
T1 construct: purchased Invitrogen P2893
T1 sequence (P04150 1-777): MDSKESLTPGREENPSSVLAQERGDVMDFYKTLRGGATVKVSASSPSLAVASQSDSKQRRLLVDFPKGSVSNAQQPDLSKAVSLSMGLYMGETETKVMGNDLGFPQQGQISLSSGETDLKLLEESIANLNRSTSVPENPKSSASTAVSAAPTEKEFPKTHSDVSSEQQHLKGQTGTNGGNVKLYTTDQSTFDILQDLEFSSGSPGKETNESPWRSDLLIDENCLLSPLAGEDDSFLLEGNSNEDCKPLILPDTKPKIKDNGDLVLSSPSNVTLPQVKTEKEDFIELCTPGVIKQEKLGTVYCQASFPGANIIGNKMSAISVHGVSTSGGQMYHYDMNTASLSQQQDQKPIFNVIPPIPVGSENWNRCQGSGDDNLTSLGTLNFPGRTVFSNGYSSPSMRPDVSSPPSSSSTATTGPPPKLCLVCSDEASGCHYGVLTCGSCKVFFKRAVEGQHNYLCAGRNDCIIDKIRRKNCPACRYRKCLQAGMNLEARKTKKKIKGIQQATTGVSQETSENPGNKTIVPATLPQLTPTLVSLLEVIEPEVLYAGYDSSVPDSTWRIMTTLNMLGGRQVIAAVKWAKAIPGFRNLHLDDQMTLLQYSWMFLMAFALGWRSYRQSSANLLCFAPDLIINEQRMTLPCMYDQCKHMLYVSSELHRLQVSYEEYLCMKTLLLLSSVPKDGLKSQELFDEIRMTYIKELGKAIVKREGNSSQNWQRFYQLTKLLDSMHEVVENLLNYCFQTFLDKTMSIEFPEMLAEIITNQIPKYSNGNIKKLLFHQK
Procedure, shortened: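 Competitive fluorescence-polarization assay using a red fluorescent glucocorticoid tracer with human GR in kit buffer. Compounds serially diluted 1:4 in DMSO, incubated with tracer and GR overnight at 4° C, then polarization read.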

[2] = tested on: IL-6 in A549 cells stimulated with IL-1β; assay: A549 Cell Assay to Measure Inflammation Markers (inhibition of IL-1β-induced IL-6); format: cell-based; conditions: Homo sapiens, A549, A549 Cell Assay to Measure Inflammation Markers; intrinsic activity, Emax class ranges
Procedure, shortened: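 Compound pre-incubated with A549 cells 1 h at 37 °C, then stimulated with IL-1β (1 ng/mL final, 0.1% DMSO). Supernatant IL-6 quantified by MSD immunoassay after a further incubation. IC50 and Emax derived.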

Row | Structure (SMILES) | IC50 [1] [nM] | Emax [2] [%]
1 | Cc1cc(Br)ccc1C1SC(C)CNc2c1c(C)nn2C (stereo not drawn) [D.62, 4-(4-bromo-2-methyl-phenyl)-1,3,6-trimethyl-4,6,7,8-tetrahydropyrazolo[3,4-e][1,4]thiazepine] | 100 to 1000 | < 50
2 | Cc1n[nH]c2c1C(c1ccc(Cl)cc1Cl)SC(C)(C)CN2 (stereo not drawn) [D.63] | 1000 to 10000 | < 50
3 | CC(C)c1nn(C)c2c1C(c1ccc(Cl)cc1Cl)SC(C)(C)CN2 (stereo not drawn) [D.64] | 100 to 1000 | < 50
4 | Cc1nn(C)c2c1C(c1ccc(Cl)cc1Cl)SC1(CCCC1)CN2 (stereo not drawn) [D.65] | < 100 | < 50
5 | Cc1nn(C)c2c1C(c1ccc(Cl)cc1Cl)SC1(CCC1)CN2 (stereo not drawn) [D.66] | < 100 | < 50
6 | Cc1nn(C)c2c1C(c1ccc(Cl)cc1Cl)SC1(CCOCC1)CN2 (stereo not drawn) [D.67] | < 100 | < 50
7 | Cc1nn(C)c2c1C(c1ccc(Cl)cc1)SC(CCO)CN2 (stereo not drawn) [D.68, 2-(4-(4-chlorophenyl)-1,3-dimethyl-4,6,7,8-tetrahydro-1H-pyrazolo[3,4-e][1,4]thiazepin-6-yl)ethanol 2,2,2-trifluoracetate] | < 100 | < 50
8 | Cc1c(Br)cccc1C1SC(C)(C)CNc2c1c(C1CC1)nn2C (stereo not drawn) [D.69] | 100 to 1000 | < 50
9 | Cc1cc(Cl)ccc1C1SC(C)(C)CNc2c1c(C)nn2C1CCCC1 (stereo not drawn) [D.70] | 100 to 1000 | < 50
10 | Cc1cc(S(C)(=O)=O)ccc1C1SC(C)(C)CNc2c1c(C)nn2C (stereo not drawn) [D.71] | 1000 to 10000 | < 50
11 | Cc1cc(Cl)ccc1C1SCCNc2c1c(C1CCCO1)nn2C (stereo not drawn) [D.72] | 100 to 1000 | < 50
12 | Cc1cc(Cl)ccc1C1SCCNc2c1c(O)nn2C (stereo not drawn) [D.73, 4-(4-chloro-2-methyl-phenyl)-1-methyl-4,6,7,8-tetrahydropyrazolo[3,4-e][1,4]thiazepin-3-ol] | > 10000 | < 50
13 | Cn1nc(C2CC2)c2c1NCC(C)(C)SC2c1ccc(Cl)cc1Cl (stereo not drawn) [D.74] | < 100 | < 50
14 | Cc1nn(C)c2c1C(c1ccc3[nH]ncc3c1)SCCN2 (stereo not drawn) [D.76] | > 10000 | < 50
15 | Cn1nc(C2CCCC2)c2c1NCCSC2c1ccc(Cl)cc1Cl (stereo not drawn) [D.77] | < 100 | < 50
16 | Cn1nc(C2CCCC2)c2c1NCC(C)(C)SC2c1ccc(Cl)cc1Cl (stereo not drawn) [D.79] | < 100 | < 50
17 | Cc1nn(C)c2c1C(c1ccc(Cl)cc1Cl)SCCN2 (stereo not drawn) [D.80] | 100 to 1000 | < 50
18 | Cn1nc(-c2ccc(Cl)cc2)c2c1NCCSC2c1ccc(Cl)cc1Cl (stereo not drawn) [D.82] | 100 to 1000 | < 50
19 | Cn1nc(-c2ccccc2)c2c1NCCSC2c1ccc(Cl)cc1Cl (stereo not drawn) [D.83] | < 100 | < 50
20 | CC(C)c1nn(C)c2c1C(c1ccc(Cl)cc1Cl)SCCN2 (stereo not drawn) [D.84] | 100 to 1000 | < 50
21 | Cn1nc(C(C)(C)C)c2c1NCCSC2c1ccc(Cl)cc1Cl (stereo not drawn) [D.85] | 100 to 1000 | < 50
22 | Cn1nc(-c2cc(F)cc(F)c2)c2c1NCCSC2c1ccc(Cl)cc1Cl (stereo not drawn) [D.90] | < 100 | < 50
23 | CC(C)Cc1nn(C)c2c1C(c1ccc(Cl)cc1Cl)SCCN2 (stereo not drawn) [D.92] | < 100 | < 50
24 | Cn1nc(-c2ccc(F)cc2)c2c1NCCSC2c1ccc(Cl)cc1Cl (stereo not drawn) [D.94] | < 100 | < 50
25 | Cn1nc(-c2cccs2)c2c1NCCSC2c1ccc(Cl)cc1Cl (stereo not drawn) [D.101] | < 100 | < 50
26 | Cn1nc(-c2ccccn2)c2c1NCCSC2c1ccc(Cl)cc1F (stereo not drawn) [D.103] | < 100 | < 50
27 | Cc1cc(Cl)ccc1C1SCCNc2c1c(-c1ccccn1)nn2CC(F)(F)F (stereo not drawn) [D.104] | < 100 | > 70
28 | Cc1cc(Cl)ccc1C1SCCNc2c1c(-c1ccccn1)nn2C(C)C (stereo not drawn) [D.105] | < 100 | > 60
29 | COc1ccc(C)c(C2SC(C)(C)CNc3c2c(C2CC2)nn3C)c1 (stereo not drawn) [D.106] | < 100 | < 50
30 | CCn1nc(C2CC2)c2c1NCC(C)(C)SC2c1ccc(Cl)cc1C (stereo not drawn) [D.107] | < 100 | < 50

From patent publication US9150592B2, “Heterocyclic nuclear hormone receptor modulators” (AbbVie Inc., priority 2012, dated 2015)
